Among the data in ChEMBL document CHEMBL1153154, “A single step purification for autolytic zinc proteinases” (Bioorg Med Chem Lett, 2010) are Kd values, retold here.

The target in test [1] is T1, Stromelysin-1 (Homo sapiens, UniProt P08254). As to the kind of experiment: Binding affinity to stromelysin-1 catalytic domain.
Test [2] has as its target T1, Stromelysin-1. The test is described as follows: Binding affinity to stromelysin-1 catalytic domain expressed in Escherichia coli BL21 (DE3) by isothermal titration […].

T1 sequence (P08254 whole entry, the tested form may be a part): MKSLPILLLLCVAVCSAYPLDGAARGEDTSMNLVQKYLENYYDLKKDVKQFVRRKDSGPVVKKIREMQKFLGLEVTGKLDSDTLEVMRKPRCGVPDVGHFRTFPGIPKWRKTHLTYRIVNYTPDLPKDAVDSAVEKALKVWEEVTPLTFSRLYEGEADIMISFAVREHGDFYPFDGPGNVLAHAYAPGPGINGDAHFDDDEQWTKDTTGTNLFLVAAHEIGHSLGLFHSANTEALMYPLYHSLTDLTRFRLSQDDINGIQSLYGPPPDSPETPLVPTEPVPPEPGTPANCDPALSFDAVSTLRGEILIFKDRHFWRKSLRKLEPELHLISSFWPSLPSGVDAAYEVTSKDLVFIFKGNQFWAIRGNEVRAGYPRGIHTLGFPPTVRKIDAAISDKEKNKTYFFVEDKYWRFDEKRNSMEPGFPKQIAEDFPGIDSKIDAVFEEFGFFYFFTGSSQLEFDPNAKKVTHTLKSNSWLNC

Broadly, the Kd is a measure of binding affinity in units of concentration. High values mean a looser complex, low ones a tighter complex. On to `N#Cc1ccc(-c2ccc(OCCC(=O)NO)cc2)cc1`, for which the Kd amounted to 100 nM on Stromelysin-1 [1] and 110 nM on Stromelysin-1 [2].

Take `COc1ccc(S(=O)(=O)N[C@@H](C(=O)NO)C(C)C)cc1`: the values for the Kd on Stromelysin-1 [1] and on Stromelysin-1 [2] were 113 nM and 43 nM, respectively.

`N#Cc1ccc(-c2ccc(OCCCCC(=O)NO)cc2)cc1`: the Kd was determined as 11000 nM on Stromelysin-1 [1] and 17000 nM on Stromelysin-1 [2].
